Experimental data: publication PMC10536391, “Inhibition of the hERG Potassium Channel by a Methanesulphonate-Free E-4031 Analogue” (Pharmaceuticals, 2023)

Tests used:
Type in all cases: cell-based
[1] = target: T1, hERG potassium channel (human Ether-à-go-go Related Gene) (Homo sapiens, UniProt Q12809, S624A); test: whole-cell patch-clamp, single concentration […]; conditions: read-out: % of control tail current at 300 nM
T1 construct: gene KCNH2; S624A hERG transiently expressed in HEK 293 cells

[2] = target: T2, hERG potassium channel (human Ether-à-go-go Related Gene) (Homo sapiens, UniProt Q12809, T623A); test: whole-cell patch-clamp, inward tail current in […] K+, […]; conditions: read-out: % of control tail current at 300 nM
T2 construct: gene KCNH2; T623A hERG transiently expressed in HEK 293 cells

[3] = target: T3, hERG potassium channel (human Ether-à-go-go Related Gene) (Homo sapiens, UniProt Q12809); test: whole-cell patch-clamp, hERG tail current, […] °C
T3 construct: gene KCNH2; wild-type hERG stably expressed in HEK 293 cells

[4] = target: T4, hERG potassium channel (human Ether-à-go-go Related Gene) (Homo sapiens, UniProt Q12809, N588K); test: whole-cell patch-clamp, single concentration […]; conditions: read-out: % of control tail current at 300 nM
T4 construct: gene KCNH2; N588K hERG transiently expressed in HEK 293 cells

[5] = target: T5, hERG potassium channel (human Ether-à-go-go Related Gene) (Homo sapiens, UniProt Q12809, F557L); test: whole-cell patch-clamp, single concentration […]; conditions: read-out: % of control tail current at 300 nM
T5 construct: gene KCNH2; F557L hERG transiently expressed in HEK 293 cells

Work on Cc1ccc(C(=O)C2CCN(CCc3ccccc3)CC2)cc1 [E-4031-17] yielded an activity at 0.3 µM [1] of 57.2%, an activity at 0.3 µM [2] of 69.7% and an IC50 [3] of 40.3 nM. It also gave an activity at 0.3 µM [4] of 43.2% and an activity at 0.3 µM [5] of 57.9%.
